Measurements as given in patent publication US20250143299A1, “METHODS AND COMPOSITIONS FOR CONTROLLING PESTS IN VEGETABLES” (Globachem NV, priority 2022, published 2025).

How the values were obtained:
Format in all cases: in vivo
Halyomorpha halys = assay: Example 13 egg trial, egg mass immersion bioassay on Halyomorpha halys; details: for % Live instars emerged: egg mass immersion
Protocol: Halyomorpha halys were obtained from a lab strain that was mass reared for several generations from a field strain. Egg masses were provided at the same stage (2-3 days before hatching) in order to test same egg masses conditions.
Bioassay, consisting in egg masses immersion, was carried out dipping the egg masses by means of lab forceps for two second inside three different PA product concentrations (100 ppm, 50 ppm and 33 ppm), one treatment with a commercial standard (Trebon up, a.i., Etofenprox) and a treatment with only water (untreated Check) were performed. 4 replicates were performed (1 egg mass is considered 1 replicate).
Assessments were conducted at 1, 2, 4 days after application, egg mortality and larvae hatching from eggs were recorded, raw data were processed with ARM software. All the statistical procedures [Student-Newman-Keuls (SNK)], Anova and other calculation analysis were performed using the ARM 2020.0 software.

Potato = assay: Example 8 Trial 1 phytotoxicity, general injury (PHYGEN) on potato; set-up: scale not given here; details: appl. AB
Excerpt: Trial 1: Potatoes, variety Lady Amarilla, 4 replicates per plot, each plot at least 25 m^2. A water volume of 200 L water/ha was used for each application. Two applications were made at a 14d interval.
Application made at the occurrence of the insects. Application A was made at Stage BBCH 36, application B was made 14 days later at Stage BBCH 51.

Diabrotica speciosa = assay: Example 11 Trial 2 potato, Diabrotica speciosa (DIABSC) control; details: appl. AB
Excerpt: Potatoes—Diabrotica speciosa (Cucurbit Beetle)—DIABSC A water volume of 400 L water/ha was used for each application. Application A made at the occurrence of the insects; application B was made 7 days later. Each plot was 15 m^2. 5.15 insects per 20 plants were present at the time of application.

Pea = assay: Example 5 phytotoxicity, chlorosis (PHYCHL) on pea; set-up: scale not given here; details: appl. AB
Protocol: The trial was conducted on peas, variety Batuta, 4 replicates per plot. A water volume of 200 L water/ha was used for each application. Two applications were made, Application A was made at first infestation and Application B was made 14d later. Each plot at least 12 m^2.

Myzus persicae = assay: Example 10 potato trial, Myzus persicae (green aphids, MYZUPE) control; details: appl. AB
Excerpt: Potatoes—Myzus persicae (Green Aphids)—MYZUPE
Potatoes, variety Agata, 4 replicates per plot. A water volume of 200 L water/ha was used for each application. Two applications were made at a 14d interval.
Application made at the occurrence of the insects. Application A was made at Stage BBCH 38-41, application B was made 14 days later at Stage BBCH 41-43.
Insects present at the time of application: at App A 93 aphids per 25 leaves at App B in untreated: 160 aphids per 25 leaves

[1] = Halyomorpha halys, read-out: % Egg mortality

Work on `CCCCCCCCC(=O)O` [PA, pelargonic acid] yielded a mortality at 33 ppm (Halyomorpha halys; [1]) of 17%, a mortality at 50 ppm (Halyomorpha halys; [1]) of 46% and a mortality at 100 ppm (Halyomorpha halys; [1]) of 65%. The “% Live instars emerged” value (Halyomorpha halys; 33 ppm ai (3.3 ml/l)) was 47%, the “% Live instars emerged” value (Halyomorpha halys; 50 ppm ai (5 ml/l)) was 18% and the “% Live instars emerged” value (Halyomorpha halys; 100 ppm ai (10 ml/l)) was 5%. The “Phytotoxicity - General Injury (PHYGEN)” value (Potato; 585 g/ha (0.9 L/ha), 3 DAB) was 0, the “Phytotoxicity - General Injury (PHYGEN)” value (Potato; 585 g/ha (0.9 L/ha), 7 DAA) was 0 and the “Phytotoxicity - General Injury (PHYGEN)” value (Potato; 585 g/ha (0.9 L/ha), 8 DAB) was 0. For the same compound, the “Phytotoxicity - General Injury (PHYGEN)” value (Potato; 585 g/ha (0.9 L/ha), 15 DAA) was 0, the “Phytotoxicity - General Injury (PHYGEN)” value (Potato; 975 g/ha (1.5 L/ha), 3 DAB) was 0 and the “Phytotoxicity - General Injury (PHYGEN)” value (Potato; 975 g/ha (1.5 L/ha), 7 DAA) was 1.3. The “Phytotoxicity - General Injury (PHYGEN)” value (Potato; 975 g/ha (1.5 L/ha), 8 DAB) was 0, the “Phytotoxicity - General Injury (PHYGEN)” value (Potato; 975 g/ha (1.5 L/ha), 15 DAA) was 0 and the “Phytotoxicity - General Injury (PHYGEN)” value (Potato; 1300 g/ha (2.0 L/ha), 3 DAB) was 1. The “Phytotoxicity - General Injury (PHYGEN)” value (Potato; 1300 g/ha (2.0 L/ha), 7 DAA) was 1, the “Phytotoxicity - General Injury (PHYGEN)” value (Potato; 1300 g/ha (2.0 L/ha), 8 DAB) was 1 and the “Phytotoxicity - General Injury (PHYGEN)” value (Potato; 1300 g/ha (2.0 L/ha), 15 DAA) was 0. The “Phytotoxicity - General Injury (PHYGEN)” value (Potato; 2600 g/ha (4.0 L/ha), 3 DAB) was 4.5, the “Phytotoxicity - General Injury (PHYGEN)” value (Potato; 2600 g/ha (4.0 L/ha), 7 DAA) was 6 and the “Phytotoxicity - General Injury (PHYGEN)” value (Potato; 2600 g/ha (4.0 L/ha), 8 DAB) was 5. The “Phytotoxicity - General Injury (PHYGEN)” value (Potato; 2600 g/ha (4.0 L/ha), 15 DAA) was 4, the “# Insects, 20 plants” value (Diabrotica speciosa; 487.5 g/ha (0.75 L/ha), 3 DAA) was 38.10b % UNCK and the “# Insects, 20 plants” value (Diabrotica speciosa; 487.5 g/ha (0.75 L/ha), 3 DAB) was 25.00ab % UNCK. The “# Insects, 20 plants” value (Diabrotica speciosa; 650 g/ha (1 L/ha), 3 DAA) was 61.90bc % UNCK, the “# Insects, 20 plants” value (Diabrotica speciosa; 650 g/ha (1 L/ha), 3 DAB) was 25.00ab % UNCK and the “# Insects, 20 plants” value (Diabrotica speciosa; 975 g/ha (1.5 L/ha), 7 DAA) was 100.00d % UNCK. For the same compound, the “# Insects, 20 plants” value (Diabrotica speciosa; 975 g/ha (1.5 L/ha), 7 DAB) was 100.00c % UNCK, the “# Insects, 20 plants” value (Diabrotica speciosa; 975 g/ha (1.5 L/ha), 10 DAB) was 100.00c % UNCK and the “Phytotoxicity - Chlorosis (PHYCHL)” value (Pea; 585 g/ha (0.9 L/ha), 3 DAA) was 0. For the same compound, the “Phytotoxicity - Chlorosis (PHYCHL)” value (Pea; 585 g/ha (0.9 L/ha), 3 DAB) was 0, the “Phytotoxicity - Chlorosis (PHYCHL)” value (Pea; 585 g/ha (0.9 L/ha), 7 DAA) was 0 and the “Phytotoxicity - Chlorosis (PHYCHL)” value (Pea; 585 g/ha (0.9 L/ha), 7 DAB) was 0. For the same compound, the “Phytotoxicity - Chlorosis (PHYCHL)” value (Pea; 585 g/ha (0.9 L/ha), 14 DAA) was 0, the “Phytotoxicity - Chlorosis (PHYCHL)” value (Pea; 585 g/ha (0.9 L/ha), 14 DAB) was 0 and the “Phytotoxicity - Chlorosis (PHYCHL)” value (Pea; 585 g/ha (0.9 L/ha), Same day A) was 0. The “Phytotoxicity - Chlorosis (PHYCHL)” value (Pea; 585 g/ha (0.9 L/ha), Same day B) was 0, the “Phytotoxicity - Chlorosis (PHYCHL)” value (Pea; 975 g/ha (1.5 L/ha), 3 DAA) was 2 and the “Phytotoxicity - Chlorosis (PHYCHL)” value (Pea; 975 g/ha (1.5 L/ha), 3 DAB) was 2. For the same compound, the “Phytotoxicity - Chlorosis (PHYCHL)” value (Pea; 975 g/ha (1.5 L/ha), 7 DAA) was 2, the “Phytotoxicity - Chlorosis (PHYCHL)” value (Pea; 975 g/ha (1.5 L/ha), 7 DAB) was 2 and the “Phytotoxicity - Chlorosis (PHYCHL)” value (Pea; 975 g/ha (1.5 L/ha), 14 DAA) was 2. For the same compound, the “Phytotoxicity - Chlorosis (PHYCHL)” value (Pea; 975 g/ha (1.5 L/ha), 14 DAB) was 0, the “Phytotoxicity - Chlorosis (PHYCHL)” value (Pea; 975 g/ha (1.5 L/ha), Same day A) was 0 and the “Phytotoxicity - Chlorosis (PHYCHL)” value (Pea; 975 g/ha (1.5 L/ha), Same day B) was 3. The “Phytotoxicity - Chlorosis (PHYCHL)” value (Pea; 1300 g/ha (2.0 L/ha), 3 DAA) was 5, the “Phytotoxicity - Chlorosis (PHYCHL)” value (Pea; 1300 g/ha (2.0 L/ha), 3 DAB) was 6 and the “Phytotoxicity - Chlorosis (PHYCHL)” value (Pea; 1300 g/ha (2.0 L/ha), 7 DAA) was 6. The “Phytotoxicity - Chlorosis (PHYCHL)” value (Pea; 1300 g/ha (2.0 L/ha), 7 DAB) was 6, the “Phytotoxicity - Chlorosis (PHYCHL)” value (Pea; 1300 g/ha (2.0 L/ha), 14 DAA) was 4 and the “Phytotoxicity - Chlorosis (PHYCHL)” value (Pea; 1300 g/ha (2.0 L/ha), 14 DAB) was 0. The “Phytotoxicity - Chlorosis (PHYCHL)” value (Pea; 1300 g/ha (2.0 L/ha), Same day A) was 5, the “Phytotoxicity - Chlorosis (PHYCHL)” value (Pea; 1300 g/ha (2.0 L/ha), Same day B) was 4 and the “Phytotoxicity - Chlorosis (PHYCHL)” value (Pea; 2600 g/ha (4.0 L/ha), 3 DAA) was 15. The “Phytotoxicity - Chlorosis (PHYCHL)” value (Pea; 2600 g/ha (4.0 L/ha), 3 DAB) was 23, the “Phytotoxicity - Chlorosis (PHYCHL)” value (Pea; 2600 g/ha (4.0 L/ha), 7 DAA) was 20 and the “Phytotoxicity - Chlorosis (PHYCHL)” value (Pea; 2600 g/ha (4.0 L/ha), 7 DAB) was 13. The “Phytotoxicity - Chlorosis (PHYCHL)” value (Pea; 2600 g/ha (4.0 L/ha), 14 DAA) was 20, the “Phytotoxicity - Chlorosis (PHYCHL)” value (Pea; 2600 g/ha (4.0 L/ha), 14 DAB) was 2 and the “Phytotoxicity - Chlorosis (PHYCHL)” value (Pea; 2600 g/ha (4.0 L/ha), Same day A) was 15. The “Phytotoxicity - Chlorosis (PHYCHL)” value (Pea; 2600 g/ha (4.0 L/ha), Same day B) was 20, the “COUINS, #/25 leaves” value (Myzus persicae; 585 g/ha (0.9 L/ha), 3 DAA) was 38.8 % UNCK and the “COUINS, #/25 leaves” value (Myzus persicae; 585 g/ha (0.9 L/ha), 3 DAB) was 68.8 % UNCK. The “COUINS, #/25 leaves” value (Myzus persicae; 585 g/ha (0.9 L/ha), 7 DAA) was 48.7 % UNCK, the “COUINS, #/25 leaves” value (Myzus persicae; 585 g/ha (0.9 L/ha), 7 DAB) was 68.4 % UNCK and the “COUINS, #/25 leaves” value (Myzus persicae; 585 g/ha (0.9 L/ha), 14 DAA) was 52.3 % UNCK. The “COUINS, #/25 leaves” value (Myzus persicae; 585 g/ha (0.9 L/ha), 14 DAB) was 73.4 % UNCK, the “COUINS, #/25 leaves” value (Myzus persicae; 975 g/ha (1.5 L/ha), 3 DAA) was 42.9 % UNCK and the “COUINS, #/25 leaves” value (Myzus persicae; 975 g/ha (1.5 L/ha), 3 DAB) was 72.6 % UNCK. For the same compound, the “COUINS, #/25 leaves” value (Myzus persicae; 975 g/ha (1.5 L/ha), 7 DAA) was 51.2 % UNCK, the “COUINS, #/25 leaves” value (Myzus persicae; 975 g/ha (1.5 L/ha), 7 DAB) was 72.4 % UNCK and the “COUINS, #/25 leaves” value (Myzus persicae; 975 g/ha (1.5 L/ha), 14 DAA) was 54.9 % UNCK. For the same compound, the “COUINS, #/25 leaves” value (Myzus persicae; 975 g/ha (1.5 L/ha), 14 DAB) was 73.2 % UNCK, the “COUINS, #/25 leaves” value (Myzus persicae; 1300 g/ha (2.0 L/ha), 3 DAA) was 61.9 % UNCK and the “COUINS, #/25 leaves” value (Myzus persicae; 1300 g/ha (2.0 L/ha), 3 DAB) was 86.1 % UNCK. For the same compound, the “COUINS, #/25 leaves” value (Myzus persicae; 1300 g/ha (2.0 L/ha), 7 DAA) was 63.9 % UNCK, the “COUINS, #/25 leaves” value (Myzus persicae; 1300 g/ha (2.0 L/ha), 7 DAB) was 86.1 % UNCK and the “COUINS, #/25 leaves” value (Myzus persicae; 1300 g/ha (2.0 L/ha), 14 DAA) was 67.3 % UNCK. For the same compound, the “COUINS, #/25 leaves” value (Myzus persicae; 1300 g/ha (2.0 L/ha), 14 DAB) was 86.5 % UNCK, the “COUINS, #/25 leaves” value (Myzus persicae; 2600 g/ha (4.0 L/ha), 3 DAA) was 68.4 % UNCK and the “COUINS, #/25 leaves” value (Myzus persicae; 2600 g/ha (4.0 L/ha), 3 DAB) was 92.6 % UNCK. The “COUINS, #/25 leaves” value (Myzus persicae; 2600 g/ha (4.0 L/ha), 7 DAA) was 70.8 % UNCK, the “COUINS, #/25 leaves” value (Myzus persicae; 2600 g/ha (4.0 L/ha), 7 DAB) was 92.5 % UNCK and the “COUINS, #/25 leaves” value (Myzus persicae; 2600 g/ha (4.0 L/ha), 14 DAA) was 74.2 % UNCK. The “COUINS, #/25 leaves” value (Myzus persicae; 2600 g/ha (4.0 L/ha), 14 DAB) was 92.4 % UNCK.
